According to US6589975B2, “Synthetic compounds for treatment of inflammation” (The Regents of the University of California, priority 1998, dated 2003):
“And” between values parts separate entries of the source, which are not always exact repeats. Equal values may be shown once. Marks after values point to notes of the source that are not given here.

How the values were obtained:
[1] = test system: RTX-induced mouse ear edema; test: Inhibition of resiniferatoxin (RTX)-induced inflammation (edema) of the mouse ear; format: in vivo; set-up: Mean (edema): unit not given here; conditions: for % Inhibition of Edema (RTX-induced edema in mouse ears): Dose 50 μg/ear; for activity in inhibition of RTX-induced edema: in words; for % Inh. Of Edema / Mean (difference, edema) / Difference (left ear minus right ear), single animals / Mean (edema): RTX 0.1 μg/ear; for ED50 for inhibition of RTX-induced edema: topical, with RTX
Procedure: Induction of mouse ear edema can be conducted according to known methods. See Inoue, 1-f., N. Nagata, Y. Koshffiara (1993), which is herein incorporated by reference. Compounds to be tested for anti-neurogenic inflammatory activity are topically applied in acetone to the ears of mice in a solution that includes the edema-causing irritant resiniferatoxin (RTX). […] After a 30-minute incubation, the mice are sacrificed, the ears removed, and bores taken and weighed. Edema is measured by subtracting the weight of the right ear (acetone control) from the weight of the left ear (treated). Results are recorded as % decrease (inhibition) or % increase (potentiation) in edema relative to the control group edema.
Soritin B was tested for anti-neurogenic inflammatory activity by topically applying in acetone to the ears of mice in a solution that includes the edema-causing irritant resiniferatoxin (RTX) as provided above. See Inoue, 1-f., N. Nagata, Y. Koshffiara (1993), which is herein incorporated by reference. […] After a 30-minute incubation, the mice are sacrificed, the ears removed, and bores taken and weighed. Edema was measured by subtracting the weight of the right ear (acetone control) from the weight of the left ear (treated). Results were recorded as % decrease (inhibition) or % increase (potentiation) in edema relative to the control group edema.

[2] = test system: PMA-induced mouse ear edema; test: Inhibition of PMA-induced inflammation (edema) of the mouse ear; format: in vivo; set-up: Mean (edema): unit not given here; conditions: for ED50, topical inhibition of PMA-induced mouse ear edema: with PMA; for Difference (left ear minus right ear), single animals: listed as Compound I
Procedure: The test compound and a known inflammatory agent, phorbol myristate acetate (PMA), are topically applied simultaneously to the left ears of mice. Three hours and 20 minutes following application, the mice are sacrificed. Both left ears and right ears are removed and standard sized bores taken. Edema (inflammation) is measured as the difference in weight between left and right ears. See Van Arman, C. G. (1974) Clin. Pharmacol. Ther. 16:900-904, which is herein incorporated by reference.
Soritin B and a known inflammatory agent, phorbol myristate acetate (PMA), were topically applied simultaneously to the left ears of mice. Three hours and 20 minutes following application, the mice were sacrificed. Both left ears and right ears were removed and standard sized bores taken. Edema (inflammation) was measured as the difference in weight between left and right ears. See Van Arman, C. G. (1974) Clin. Pharmacol. Ther. 16:900-904, which is herein incorporated by reference.

[3] = Soritin B assay: coloration in solution; format: physicochemical; conditions: dissolved in acetone
[4] = 50 μg/ear, listed as Compound I
[5] = 3.12 μg/ear, PMA 2.0 μg/ear, n = 15
[6] = 6.25 μg/ear, PMA 2.0 μg/ear, n = 15
[7] = 12.5 μg/ear, PMA 2.0 μg/ear, n = 15
[8] = 25 μg/ear, PMA 2.0 μg/ear, n = 15

## c1ccc2c(Cc3c[nH]c4ccccc34)c[nH]c2c1 [HB-236, bis(3,3′indolyl)methane]
[1]
  % Inhibition of Edema (RTX-induced edema in mouse ears): 59.1%
  activity in inhibition of RTX-induced edema: show activity

## O=CC(c1c[nH]c2ccccc12)c1c[nH]c2ccccc12 [HB-237, 2,2-bis(3,3′indolyl) acetaldehyde]
[1]
  % Inhibition of Edema (RTX-induced edema in mouse ears): 50.1%
  activity in inhibition of RTX-induced edema: show activity

## C[C@]12CCC(=O)C=C1CC[C@@H]1[C@@H]2[C@@H](O)C[C@@]2(C)[C@H]1CC[C@]2(O)C(=O)CO [Hydrocortisone, hydrocortisone, reference compound]
[2]
  ED50, topical inhibition of PMA-induced mouse ear edema: 20 μg/ear

## O=C(O)C(c1c[nH]c2ccccc12)c1c[nH]c2ccccc12 [Soritin A, bis-(1H-indol-3-yl)-acetic acid]
[2]; 3.12 μg/ear, PMA 2 μg/ear
  % Inh. Of Edema: 52.9%
  Mean (difference, edema): 6.4 mg
  Difference (left ear minus right ear), single animals: 4.0 mg and 8.7 mg (2×) and 4.3 mg
[2]; 6.25 μg/ear, PMA 2 μg/ear
  % Inh. Of Edema: 75.1%
  Mean (difference, edema): 3.4 mg
  Difference (left ear minus right ear), single animals: 1.2 mg and 4.5 mg and 2.4 mg and 5.5 mg
[2]; 12.5 μg/ear, PMA 2 μg/ear
  % Inh. Of Edema: 77.3%
  Mean (difference, edema): 3.1 mg
  Difference (left ear minus right ear), single animals: 4.1 mg and 1.9 mg and 1.2 mg and 5.2 mg
[2]; 25 μg/ear, PMA 2 μg/ear
  % Inh. Of Edema: 84.9%
  Mean (difference, edema): 2.1 mg
  Difference (left ear minus right ear), single animals: 1.7 mg and 3.4 mg and 0.4 mg and 2.8 mg
[2]; 50 μg/ear, PMA 2 μg/ear
  % Inh. Of Edema: 87.5%
  Mean (difference, edema): 1.7 mg
  Difference (left ear minus right ear), single animals: 1.6 mg and 2.2 mg and 1.3 mg and 1.7 mg
[2]; in words
  potency in reducing PMA-induced mouse ear edema relative to known anti-inflammatories: greater potency than the known anti-inflammatories hydrocortisone, indomethacin, manoalide and topsentin
[2]
  ED50, topical inhibition of PMA-induced mouse ear edema: 1.3 μg/ear
[1]; 3.12 μg/ear
  % Inh. Of Edema: 49.9%
  Mean (difference, edema): 6.0 mg
[1]; 3.12 μg/ear, listed as Compound I
  Difference (left ear minus right ear), single animals: 6.0 mg (2×) and 6.6 mg and 7.1 mg and 4.1 mg and 6.3 mg
[1]; 6.25 μg/ear
  % Inh. Of Edema: 33.6%
  Mean (difference, edema): 8.0 mg
[1]; 6.25 μg/ear, listed as Compound I
  Difference (left ear minus right ear), single animals: 6.0 mg and 11.2 mg and 7.3 mg and 10.1 mg and 8.3 mg and 5.0 mg
[1]; 12.5 μg/ear
  % Inh. Of Edema: 76.8%
  Mean (difference, edema): 2.8 mg
[1]; 12.5 μg/ear, listed as Compound I
  Difference (left ear minus right ear), single animals: 3.8 mg and 3.6 mg and 3.1 mg and 1.1 mg and 1.7 mg and 3.4 mg
[1]; 25 μg/ear
  % Inh. Of Edema: 87.9%
  Mean (difference, edema): 1.5 mg
[1]; 25 μg/ear, listed as Compound I
  Difference (left ear minus right ear), single animals: 4.1 mg and 0.2 mg and 2.1 mg and 0.6 mg and 0.3 mg
[1]; 50 μg/ear
  Mean (difference, edema): 0.3 mg
[1]; [4]
  % Inh. Of Edema: 97.7%
  Difference (left ear minus right ear), single animals: 0.1 mg and −0.2 mg (2×) and 1.5 mg
[1]; 50 μg/ear, listed as Soritin A (I)
  % Inh. Of Edema: approximately 97.7%
[1]
  % Inhibition of Edema (RTX-induced edema in mouse ears): 97.7%
  ED50 for inhibition of RTX-induced edema: 5.1 μg/ear

## CC1=C(CC/C(C)=C/CCC2=CC[C@H](C3=CC(=O)O[C@H]3O)O[C@H]2O)C(C)(C)CCC1 [Manoalide, manoalide, reference compound]
[2]
  ED50, topical inhibition of PMA-induced mouse ear edema: 100 μg/ear

## COC(=O)C(c1c[nH]c2ccccc12)c1c[nH]c2ccccc12 [Soritin B, bis-(1H-indol-3-yl)-acetic acid methyl ester]
[2]; [5]
  % Inh. Of Edema: 14.6%
  Mean (edema): 10.0**
[2]; [6]
  % Inh. Of Edema: 17.1%
  Mean (edema): 9.7**
[2]; [7]
  % Inh. Of Edema: 27.1%
  Mean (edema): 8.6*
[2]; [8]
  % Inh. Of Edema: 50.0%
  Mean (edema): 5.9*
[2]; 50 μg/ear, PMA 2.0 μg/ear, n = 15
  Mean (edema): 3.4*
[2]
  ED50, topical inhibition of PMA-induced mouse ear edema: 24.2 μg/ear
[1]; 3.12 μg/ear, n = 15
  % Inh. Of Edema: 7.7%
  Mean (edema): 9.1
[1]; 6.25 μg/ear, n = 15
  % Inh. Of Edema: 34.3%
  Mean (edema): 6.5*
[1]; 12.5 μg/ear, n = 15
  % Inh. Of Edema: 61.0%
  Mean (edema): 3.2*
[1]; 25 μg/ear, n = 14
  % Inh. Of Edema: 79.2%
  Mean (edema): 1.7*
[1]; 50 μg/ear, n = 15
  Mean (edema): 1.0*
[1]
  ED50 for inhibition of RTX-induced edema: 10.9 μg/ear
[3]
  color in solution: light amber color

## COc1ccc2c(c1)c(CC(=O)O)c(C)n2C(=O)c1ccc(Cl)cc1 [Indomethacin, indomethacin, reference compound]
[2]
  ED50, topical inhibition of PMA-induced mouse ear edema: 250 μg/ear

## O=C(c1nc(-c2c[nH]c3ccccc23)c[nH]1)c1c[nH]c2cc(O)ccc12 [Topsentin, topsentin, reference compound]
[2]
  ED50, topical inhibition of PMA-induced mouse ear edema: 15 μg/ear
